The results in this text go back to publication PMC4008261, “Rewiring of regenerated axons by combining treadmill training with semaphorin3A inhibition” (Molecular Brain, 2014).

Assay [1] addresses GSK3β (Homo sapiens, UniProt P49841). As to the kind of experiment: Kinase inhibition test. It counts as biochemical. An excerpt:
(§1) Table 2 Pharmacological profile of SM-345431 (part 2) | column: IC50 (μm)

For assay [2], the target named is Fyn (Homo sapiens, UniProt P06241). Kind of assay: Kinase inhibition test. It counts as biochemical.
Description: as §1

The target of assay [3] is MEK4 (Homo sapiens, UniProt P45985). Kind of assay: Kinase inhibition test. It counts as biochemical.
Description: as §1

Assay [4] has as its target PKCγ (Homo sapiens, UniProt P05129). As to the kind of experiment: Kinase inhibition test. It counts as biochemical.
Description: as §1

Assay [5] has as its target MAPK2 (Homo sapiens, UniProt P28482). Kind of assay: Kinase inhibition test. It counts as biochemical.
Description: as §1

Assay [6] addresses FGFR2 (Homo sapiens, UniProt P21802). As to the kind of experiment: Kinase inhibition test. It counts as biochemical.
Description: as §1

Assay [7] deals with MEK1 (Homo sapiens, UniProt Q02750). As to the kind of experiment: Kinase inhibition test. It counts as biochemical.
Description: as §1

Assay [8] deals with Fes (Homo sapiens, UniProt P07332). Kind of assay: Kinase inhibition test. It counts as biochemical.
Description: as §1

For assay [9], the system named is SCT adult rats. As to the kind of experiment: Angiogenesis after SCT (RECA-1 immunostaining). It counts as in vivo, rat. The note with it: for total immunostained area of vessels with lumen diameters larger than 20 μm versus control: 3 mm and 1 mm rostral/caudal to the lesion epicenter. How it is done:
Rats were randomly divided into the following three experimental groups: 1) untrained + placebo, 2) untrained + SM-345431 and 3) trained + SM-345431. SCT was performed, and SM-345431 or placebo was administered at the lesion site via the newly developed DDS, which is described in detail below. Starting 1 week post-injury, treadmill training commenced with a BSS. Kinematic tests were performed monthly for 3 months after SCT using a rodent robotic device (Rodent robot 3000, Robomedica Inc.) that primarily assessed the performance of plantar stepping on a treadmill. Treadmill training was continued throughout the experimental period.
A total of 53 adult female Sprague-Dawley rats (200-250 g, 10-12 weeks old) were used in this study (3 rats died during the experimental period and were excluded from the statistical analysis). All procedures were approved by the experimental animal care committee of Keio University, School of Medicine and Murayama Medical Center (approval #12-8). All rats were anesthetized with an intraperitoneal injection of ketamine (100 mg/kg)/xylazine (10 mg/kg). The spinal cord at the level of the T10 lamina was exposed by T10 laminectomy, and the dorsal dura mater was opened. The exposed spinal cord was cut along the inner edge of the vertebra with a sharp micro-scissor. Two more cuts were made at the gap of the transected spinal cord by a scalpel to ensure total transection. SM-345431 or placebo was administered to the transected site via the newly developed DDS as described in detail below (Figure 1G-I). After these procedures, the back muscles and skin were closed. Rats were kept warm in an incubator (37°C) after surgery. To prevent dehydration in the rats, 10 ml of saline was subcutaneously injected daily until day 7. Ampicillin (0.4 g/kg) was also injected intramuscularly daily to prevent infection until day 7. The bladder was evacuated manually until autonomous emptying of the bladder was achieved. […] Kinematic data were recorded using similar procedures prior to re-transection surgery (on the same day) and on the day following re-transection surgery. […]

Sequence of FGFR2 (P21802 22-821, species assumed): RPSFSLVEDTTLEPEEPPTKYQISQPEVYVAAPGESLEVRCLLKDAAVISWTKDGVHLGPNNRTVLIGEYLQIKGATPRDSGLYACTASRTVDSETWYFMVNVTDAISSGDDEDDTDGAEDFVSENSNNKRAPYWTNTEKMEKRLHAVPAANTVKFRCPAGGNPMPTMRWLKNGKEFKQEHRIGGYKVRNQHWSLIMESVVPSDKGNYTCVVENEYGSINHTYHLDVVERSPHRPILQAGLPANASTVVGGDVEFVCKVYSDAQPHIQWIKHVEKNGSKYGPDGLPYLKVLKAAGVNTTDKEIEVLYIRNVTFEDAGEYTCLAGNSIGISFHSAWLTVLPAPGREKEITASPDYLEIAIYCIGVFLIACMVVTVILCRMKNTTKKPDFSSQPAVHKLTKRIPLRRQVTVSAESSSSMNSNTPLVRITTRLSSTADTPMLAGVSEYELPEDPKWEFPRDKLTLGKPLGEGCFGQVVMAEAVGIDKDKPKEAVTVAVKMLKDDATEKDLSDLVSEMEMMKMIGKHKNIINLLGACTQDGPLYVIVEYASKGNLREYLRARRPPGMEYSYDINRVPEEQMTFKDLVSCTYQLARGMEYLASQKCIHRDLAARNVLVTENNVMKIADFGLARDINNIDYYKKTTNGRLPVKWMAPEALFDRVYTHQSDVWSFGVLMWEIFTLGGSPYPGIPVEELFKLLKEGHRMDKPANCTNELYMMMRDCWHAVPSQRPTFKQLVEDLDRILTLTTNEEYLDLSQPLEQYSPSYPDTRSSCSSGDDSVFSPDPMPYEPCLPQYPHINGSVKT
Sequence of Fes (P07332 whole entry, species assumed): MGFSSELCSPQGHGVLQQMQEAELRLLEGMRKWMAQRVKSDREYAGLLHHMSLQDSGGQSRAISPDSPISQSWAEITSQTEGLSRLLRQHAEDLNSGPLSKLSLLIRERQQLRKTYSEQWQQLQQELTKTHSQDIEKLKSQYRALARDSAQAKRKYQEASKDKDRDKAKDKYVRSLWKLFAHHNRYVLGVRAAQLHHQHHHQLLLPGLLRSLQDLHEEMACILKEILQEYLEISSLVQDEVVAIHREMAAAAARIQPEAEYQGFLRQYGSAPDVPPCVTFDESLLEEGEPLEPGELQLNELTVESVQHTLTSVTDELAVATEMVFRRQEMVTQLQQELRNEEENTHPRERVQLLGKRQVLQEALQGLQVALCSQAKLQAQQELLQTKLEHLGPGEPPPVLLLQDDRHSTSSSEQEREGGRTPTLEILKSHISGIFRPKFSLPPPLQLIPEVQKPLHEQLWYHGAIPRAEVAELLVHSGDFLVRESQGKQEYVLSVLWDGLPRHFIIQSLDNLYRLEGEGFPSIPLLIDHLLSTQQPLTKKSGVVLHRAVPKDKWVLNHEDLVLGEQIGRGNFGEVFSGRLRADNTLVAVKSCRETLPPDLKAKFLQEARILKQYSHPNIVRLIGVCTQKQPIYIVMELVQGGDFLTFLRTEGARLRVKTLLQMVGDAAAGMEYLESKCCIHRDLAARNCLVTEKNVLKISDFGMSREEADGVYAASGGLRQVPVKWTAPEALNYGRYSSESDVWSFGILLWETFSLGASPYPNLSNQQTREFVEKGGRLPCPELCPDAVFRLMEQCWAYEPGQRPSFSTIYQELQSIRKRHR
Sequence of MAPK2 (P28482 whole entry): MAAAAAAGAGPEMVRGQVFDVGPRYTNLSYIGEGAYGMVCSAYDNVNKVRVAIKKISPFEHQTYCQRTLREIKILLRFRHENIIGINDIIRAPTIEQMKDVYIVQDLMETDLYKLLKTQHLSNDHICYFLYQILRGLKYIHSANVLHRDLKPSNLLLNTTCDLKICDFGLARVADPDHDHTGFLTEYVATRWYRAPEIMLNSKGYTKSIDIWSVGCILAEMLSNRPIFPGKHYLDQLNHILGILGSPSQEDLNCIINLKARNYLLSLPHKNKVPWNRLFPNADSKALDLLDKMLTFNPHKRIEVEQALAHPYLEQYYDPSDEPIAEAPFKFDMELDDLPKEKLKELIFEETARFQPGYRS
Sequence of GSK3β (P49841 whole entry, species assumed): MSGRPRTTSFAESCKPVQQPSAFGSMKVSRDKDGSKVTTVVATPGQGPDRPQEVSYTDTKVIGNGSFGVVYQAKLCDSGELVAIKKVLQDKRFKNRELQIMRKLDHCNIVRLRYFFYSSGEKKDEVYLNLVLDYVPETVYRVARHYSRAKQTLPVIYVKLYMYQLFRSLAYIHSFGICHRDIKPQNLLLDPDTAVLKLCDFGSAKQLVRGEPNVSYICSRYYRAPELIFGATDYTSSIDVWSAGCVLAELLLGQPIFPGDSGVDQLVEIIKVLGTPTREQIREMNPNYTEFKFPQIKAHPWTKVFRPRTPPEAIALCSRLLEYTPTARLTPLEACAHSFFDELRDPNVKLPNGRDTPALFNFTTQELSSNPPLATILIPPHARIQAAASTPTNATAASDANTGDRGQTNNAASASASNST
Sequence of MEK4 (P45985 whole entry, species assumed): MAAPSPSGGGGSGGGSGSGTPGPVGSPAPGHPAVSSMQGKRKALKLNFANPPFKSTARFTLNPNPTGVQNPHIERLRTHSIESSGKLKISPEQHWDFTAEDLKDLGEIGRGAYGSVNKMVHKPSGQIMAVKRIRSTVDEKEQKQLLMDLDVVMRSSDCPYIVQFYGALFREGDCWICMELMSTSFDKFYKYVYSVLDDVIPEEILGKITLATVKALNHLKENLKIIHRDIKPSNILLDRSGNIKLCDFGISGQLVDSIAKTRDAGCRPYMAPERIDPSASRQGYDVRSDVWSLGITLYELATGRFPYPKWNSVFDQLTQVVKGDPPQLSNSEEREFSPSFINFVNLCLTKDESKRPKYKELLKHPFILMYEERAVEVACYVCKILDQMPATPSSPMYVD
Sequence of Fyn (P06241 whole entry, species assumed): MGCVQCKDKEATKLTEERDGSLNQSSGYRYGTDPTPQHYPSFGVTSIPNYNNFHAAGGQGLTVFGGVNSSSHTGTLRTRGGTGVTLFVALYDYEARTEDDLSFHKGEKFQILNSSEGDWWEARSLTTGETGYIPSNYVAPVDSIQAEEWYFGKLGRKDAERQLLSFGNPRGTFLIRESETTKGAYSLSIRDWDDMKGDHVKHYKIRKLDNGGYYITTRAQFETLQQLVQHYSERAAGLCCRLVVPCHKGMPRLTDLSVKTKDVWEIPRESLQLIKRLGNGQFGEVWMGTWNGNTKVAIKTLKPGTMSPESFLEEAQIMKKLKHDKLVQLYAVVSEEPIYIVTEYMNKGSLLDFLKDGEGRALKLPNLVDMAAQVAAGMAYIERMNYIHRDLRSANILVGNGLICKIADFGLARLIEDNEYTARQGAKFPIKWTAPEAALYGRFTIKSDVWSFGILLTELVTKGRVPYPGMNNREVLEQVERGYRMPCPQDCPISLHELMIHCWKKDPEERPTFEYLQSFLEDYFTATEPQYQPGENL
Sequence of MEK1 (Q02750 whole entry, species assumed): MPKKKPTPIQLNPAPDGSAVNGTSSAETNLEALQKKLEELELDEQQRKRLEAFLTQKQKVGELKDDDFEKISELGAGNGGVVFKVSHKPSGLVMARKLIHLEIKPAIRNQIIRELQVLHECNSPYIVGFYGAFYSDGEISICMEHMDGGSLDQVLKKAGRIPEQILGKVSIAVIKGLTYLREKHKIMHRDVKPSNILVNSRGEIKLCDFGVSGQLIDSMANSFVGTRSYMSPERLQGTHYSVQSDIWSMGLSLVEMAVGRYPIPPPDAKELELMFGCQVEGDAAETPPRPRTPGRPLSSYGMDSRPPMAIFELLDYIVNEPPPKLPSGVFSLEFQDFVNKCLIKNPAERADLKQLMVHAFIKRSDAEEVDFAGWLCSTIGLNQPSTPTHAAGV

In general, IC50 refers to the concentration that inhibits the measured activity by half. High values mean weaker potency, low ones greater potency. As for `CC(=O)c1cc2c(=O)c3c(C(=O)O)c(O)c(O)cc3oc2c(C(C)=O)c1-c1coc2cc(O)c(O)c(C(=O)O)c2c1=O` [SM-345431, Vinaxanthone], the IC50 in [1], in assay [2], in [3], in assay [4], in [5] and in [6] was over 10 µM in each case. Besides, the IC50 in assay [7] and in assay [8] was over 10 µM each time. The “total immunostained area of vessels with lumen diameters larger than 20 μm versus control” value in [9] (SM-345431 alone) and in assay [9] (SM-345431 combined with treadmill training) was “significantly increased” in each case. The RECA-1-positive areas entry in assay [9] (SM-345431 combined with treadmill training, 3 mm caudal to the lesion epicenter, P < 0.05) is on record as “significantly increased”.
